Reference: patent US20150342195A1, “ANTI-MICROBIAL COMPOSITIONS, PREPARATIONS, METHODS, AND USES” (MYCO SCIENCES LIMITED, priority 2014, published 2015)
Converted amounts (≈) assume the structure as drawn.

Columns and labels:
Assay type in all cases: cell-based
[1] = tested on: plant pathogenic fungi; assay: organism not typed; settings: summary of TABLE 8
[2] = tested on: Rhizoctonia solani; assay: Fungal growth inhibition assay (hyphal growth diameter on PDA); settings: for IC50: % of composition stock solution / IC50: concentration of copper or zinc in the composition, or phosphorous acid: PDA, 1 day; for IC50: concentration of copper or zinc in the composition, or phosphorous acid: Cu—Zn# compositions: copper plus zinc; for Potassium sorbate synergy with composition/compound: potassium sorbate and composition/compound both at their IC50 concentrations
[3] = tested on: Trichophyton rubrum; assay: Fungal growth inhibition assay with Trichophyton rubrum; settings: PDA, 33° C., 7 days; for T. rubrum IC50 values: Concentration: Cu—Zn#12: 50% each of elemental copper and zinc
Method: To assess the effects of compositions on fungal growth, 10 microliters of the test compositions diluted in sterile distilled water were placed in the wells of a 12-well tissue culture plate and 1 milliliter of liquid PDA was added by pipette to each well. Where multiple samples were added to each well, the 10 microliter drops were kept separate until they were mixed by the addition of hot liquid PDA and the plate was then agitated to evenly distribute the test composition(s) evenly through the agar (distilled water was used as vehicle control) and then the agar was allowed to set. For most strains (see TABLE 2), plugs of agar containing fungal hyphae (2 to 3 millimeters in diameter) from the edge of an established fungal culture were carefully cut out using a scalpel and inserted into holes cut in the centre of the agar in each well of the 12-well plate. With B. cinerea and U. maydis, mature cultures were washed with 3 ml of sterile distilled water and the spore suspensions obtained were adjusted to O.D. (at 600 nanometers) of 1.0 and 1.5, respectively. A small hole (˜1 millimeter) was made in the center of the PDA in each well with a yellow pipette tip and 1.5 microliters of spore suspension was carefully pipetted into the hole. […] To assess the effects of compositions on fungal growth in all experiments, the diameter of the hyphal growth was measured twice at a 90° angle using a ruler and the average diameter in millimeters was calculated. If no fungal growth could be detected by eye, the cultures were observed by phase microscopy (40×) to confirm that there was no growth (NG).
A clinical isolate of T. rubrum (strain 7107996; Phylum: Acomycota) was kindly provided by Dr. Richard Barton, Leeds University, UK. The growth assays with T. rubrum were as described in EXAMPLE 1, except this strain was cultured at 33° C. on PDA for 6 or 7 days when growth was assessed. T. rubrum cultures were maintained on Sabouraud dextrose agar at 33° C.
FIG. 8 is a graph depicting the effects of selected compositions and compounds on the growth of Trichophyton rubrum. The culture period was 7 days. Growth in the control cultures was 20±0 millimeters (mean±SD for 2 experiments).

[4] = tested on: Aspergillus niger; assay: Fungal growth inhibition assay (hyphal growth diameter on PDA); settings: for IC50: % of composition stock solution / IC50: concentration of copper or zinc in the composition, or phosphorous acid: PDA, 6 days; for IC50: concentration of copper or zinc in the composition, or phosphorous acid: Cu—Zn#12: 50% each of elemental copper and zinc; for Potassium sorbate synergy with composition/compound: potassium sorbate and composition/compound both at their IC50 concentrations
[5] = tested on: Magnaporthe oryzae; assay: microbe, parasite or virus in culture; settings: PDA; for IC50: % of composition stock solution / IC50: concentration of copper or zinc in the composition, or phosphorous acid: 4 days; for IC50: concentration of copper or zinc in the composition, or phosphorous acid: Cu—Zn#12: 50% each of elemental copper and zinc
[6] = tested on: Fusarium graminearum; assay: microbe, parasite or virus in culture; settings: for IC50: % of composition stock solution / IC50: concentration of copper or zinc in the composition, or phosphorous acid: PDA, 3 days; for IC50: concentration of copper or zinc in the composition, or phosphorous acid: Cu—Zn#12: 50% each of elemental copper and zinc; for Potassium sorbate synergy with composition/compound: potassium sorbate and composition/compound both at their IC50 concentrations
[7] = tested on: Ustilago maydis; assay: Fungal growth inhibition assay (hyphal growth diameter on PDA); set-up: Potassium sorbate synergy with composition/compound: key to the marks not given beside the values; settings: for IC50: % of composition stock solution / IC50: concentration of copper or zinc in the composition, or phosphorous acid: PDA, 5 days; for IC50: concentration of copper or zinc in the composition, or phosphorous acid: Cu—Zn#12: 50% each of elemental copper and zinc; for Potassium sorbate synergy with composition/compound: potassium sorbate and composition/compound both at their IC50 concentrations
[8] = tested on: Botrytis cinerea; assay: as above; settings: for IC50: % of composition stock solution / IC50: concentration of copper or zinc in the composition, or phosphorous acid: PDA, 2 days; for IC50: concentration of copper or zinc in the composition, or phosphorous acid: Cu—Zn#12: 50% each of elemental copper and zinc; for Potassium sorbate synergy with composition/compound: potassium sorbate and composition/compound both at their IC50 concentrations
[9] = tested on: Pseudomonas syringae (pv. tomato DC3000); assay: Bacterial microplate culture (resazurin MIC); settings: 24 hours at 28° C.; highest concentration 400 mg/L (1% of stock solutions)
[10] = tested on: Ralstonia solanacearum (strain PSS4 from tomato); assay: microbe, parasite or virus in culture; settings: 24 hours at 28° C.; highest concentration 400 mg/L (1% of stock solutions)
[11] = tested on: Xanthomonas oryzae (strain Gx0372); assay: microbe, parasite or virus in culture; settings: 24 hours at 28° C.; highest concentration 400 mg/L (1% of stock solutions)
[12] = tested on: Alternaria alternata; assay: Fungal growth inhibition assay (hyphal growth diameter on PDA); settings: PDA, 2 days; for IC50: concentration of copper or zinc in the composition, or phosphorous acid: Cu—Zn#12: 50% each of elemental copper and zinc
[13] = tested on: Xanthomonas campestris (strain Race 5 from brassica); assay: Bacterial microplate culture (resazurin MIC); settings: 24 hours at 28° C.; highest concentration 400 mg/L (1% of stock solutions)

Molecule	fungal strains (of those tested) showing strong synergy with KS [1]	IC50: % of composition stock solution [2]	IC50: concentration of copper or zinc in the composition, or phosphorous acid [2]	T. rubrum IC50 values: % of stock solution [3]	T. rubrum IC50 values: Concentration [3]	IC50: % of composition stock solution [4]	IC50: concentration of copper or zinc in the composition, or phosphorous acid [4]	IC50: % of composition stock solution [5]	IC50: concentration of copper or zinc in the composition, or phosphorous acid [5]	IC50: % of composition stock solution [6]	IC50: concentration of copper or zinc in the composition, or phosphorous acid [6]	IC50: % of composition stock solution [7]	IC50: concentration of copper or zinc in the composition, or phosphorous acid [7]	IC50: % of composition stock solution [8]	IC50: concentration of copper or zinc in the composition, or phosphorous acid [8]	Potassium sorbate synergy with composition/compound [8]	MIC [9]	MIC [10]	MIC [11]	IC50: % of composition stock solution [12]	other results
O=S(=O)([O-])[O-].[Cu+2] [Copper sulfate, copper sulfate]	6/7	0.39 % of composition stock solution	156 µg/mL	0.20 % of stock solution	80 µg/mL	0.19 % of composition stock solution	76 µg/mL	0.51 % of composition stock solution	204 µg/mL	0.22 % of composition stock solution	88 µg/mL	0.43 % of composition stock solution	172 µg/mL	0.46 % of composition stock solution	184 µg/mL	++	100 µg/mL	50 µg/mL	50 µg/mL	0.44 % of composition stock solution	IC50: % of composition stock solution ([5]; listed as copper sulfate): 0.51 % of composition stock solutio; IC50: % of composition stock solution ([6]; listed as copper sulfate): 0.22 % of composition stock solutio; IC50: concentration of copper or zinc in the composition, or phosphorous acid [12]: 176 µg/mL; MIC [13]: 50 µg/mL
OP(O)O [Phosphorous acid, phosphorous acid]	4/7	0.64 % of composition stock solution	256 µg/mL	0.05 % of stock solution	20 µg/mL	0.19 % of composition stock solution	76 µg/mL	0.57 % of composition stock solution	228 µg/mL	0.39 % of composition stock solution	156 µg/mL	0.75 % of composition stock solution	300 µg/mL	0.63 % of composition stock solution	252 µg/mL	+	200 µg/mL (≈ 2.44 mM)	100 µg/mL (≈ 1.22 mM)	400 µg/mL (≈ 4.88 mM)	0.51 % of composition stock solution	Potassium sorbate synergy with composition/compound [4]: +; IC50: % of composition stock solution ([5]; listed as phosphorous acid): 0.57 % of composition stock solutio; IC50: % of composition stock solution ([6]; listed as phosphorous acid): 0.78 % of composition stock solutio; Potassium sorbate synergy with composition/compound [7]: ++; IC50: concentration of copper or zinc in the composition, or phosphorous acid [12]: 204 µg/mL; MIC [13]: >400 µg/mL
O=S(=O)([O-])[O-].[Zn+2] [Zinc sulfate, zinc sulfate]	2 strains	0.33 % of composition stock solution	132 µg/mL	0.25 % of stock solution	100 µg/mL	0.25 % of composition stock solution	100 µg/mL	0.48 % of composition stock solution	192 µg/mL	0.66 % of composition stock solution	264 µg/mL	0.56 % of composition stock solution	224 µg/mL	0.52 % of composition stock solution	208 µg/mL	+	400 µg/mL	>400 µg/mL	400 µg/mL	0.62 % of composition stock solution	Potassium sorbate synergy with composition/compound [2]: +; Potassium sorbate synergy with composition/compound [4]: +; IC50: % of composition stock solution ([5]; listed as zinc sulfate): 0.48 % of composition stock solutio; IC50: % of composition stock solution ([6]; listed as zinc sulfate): 0.66 % of composition stock solutio; Potassium sorbate synergy with composition/compound [6]: +; Potassium sorbate synergy with composition/compound [7]: ++; IC50: concentration of copper or zinc in the composition, or phosphorous acid [12]: 248 µg/mL; MIC [13]: >400 µg/mL
Potassium phosphite	2 strains	0.93 % of composition stock solution	–	–	–	0.19 % of composition stock solution	–	3.7 % of composition stock solution	–	0.78 % of composition stock solution	–	1.3 % of composition stock solution	–	0.67 % of composition stock solution	–	+	–	–	–	1.1 % of composition stock solution	Potassium sorbate synergy with composition/compound [2]: ++; Potassium sorbate synergy with composition/compound [4]: +; IC50 fold higher than the Cu#, Cu—Zn# or Zn# compositions [5]: 13.7 fold; Potassium sorbate synergy with composition/compound [6]: ++; Potassium sorbate synergy with composition/compound [7]: ++
